This is an account of results in US20010034365A1, “Halogen substituted carbamate compounds from 2-phenyl-1,2-ethanediol” (priority 1996, published 2001).

Experiment [1] deals with mice (CF-1 strain). In words: Maximal ElectroShock (MES) test for anticonvulsants. The class given is in vivo. Conditions: dosed orally. The procedure: The therapeutic use of the compounds claimed in the present invention as anticonvulsants has been proven by the “Maximal ElectroShock (MES)” test, which is a well-established pharmacological screening method for anticonvulsants against partial seizures, and the results are presented in Table 1. The procedure employed in the MES test for anticonvulsants follows. The compound dosing, solutions were prepared in saline, and the subject, namely, mice (CF-1 strain), were dosed orally. After the designated number of hours, maximal electroshock was induced in mice via corneal electrodes using IITC Life Science model 11A Shocker at 50 mA-60 Hz for […]. Upon inducing, maximal electroshock, the elimination of hindlimb tonic extension was considered as providing evidence of the protection by an anticonvulsant. Median efficacy dose (ED50) levels were determined using three different dose levels with at least 6 mice in each group.

The subject of experiment [2] is mice (CF-1 strain). The experiment is described as above. Conditions: ip, Hour 1, elimination of hindlimb tonic extension. In kind it is in vivo.
The mark [3] stands for this setting: Hour 4, elimination of hindlimb tonic extension.
[4] abbreviates: Hour 1, elimination of hindlimb tonic extension.

In the case of “(S)-(2-(4-Chlorophenyl)-2-carbamoyloxyethyl)oxocarboxamide [Entry 10]”, in the experiment on mice (CF-1 strain) [1] (setting [3]), the “ED50” value is 21.5 mg/kg.

As to `O=C(NCc1ccccc1)OC[C@H](OC(=O)NCc1ccccc1)c1ccccc1Cl` [Entry 17, (R)-N-Benzyl(2-(2-chlorophenyl)-2-N-benzylcarbamoyloxyethyl)-oxocarboxamide], the “ED50” value in the experiment on mice (CF-1 strain) [1] (setting [3]) was above 20 mg/kg.

Turning to `NC(=O)OCC(OC(N)=O)c1c(Cl)cccc1Cl` (stereo not drawn) [Entry 11, (DL)-(2-(2,6-dichlorophenyl)-2-carbamoyloxyethyl)-oxocarboxamide], the “ED50” value in the experiment with mice (CF-1 strain) [1] (setting [4]) was determined as 7.4 mg/kg.

For the compound `CC(C)NC(=O)OC[C@H](OC(=O)NC(C)C)c1ccccc1Cl` [Entry 15], the “ED50 (mg/Kg)” value in the experiment with mice (CF-1 strain) [2] is given as “≈10 (ip) mg/Kg”.

In the case of “(S)-(2-(2-Chlorophenyl)-2-carbamoyloxyethyl)oxocarboxamide [Entry 7]”, in the experiment on mice (CF-1 strain) [1] (setting [4]), the “ED50” value worked out at 22.0 mg/kg.

As to `NC(=O)OCC(OC(N)=O)c1ccccc1Cl` (stereo not drawn) [Entry 5, (DL)-(2-(2-Chlorophenyl)-2-carbamoyloxyethyl)oxocarboxamide], in the experiment with mice (CF-1 strain) [1] (setting [4]), the 50% effective dose (ED50) was 25 mg/kg.

`NC(=O)OCC(OC(N)=O)c1ccc(Cl)cc1` (stereo not drawn) [Entry 8, (DL)-(2-(4-Chlorophenyl)-2-carbamoyloxyethyl)oxocarboxamide]: in the experiment on mice (CF-1 strain) [1] (setting [4]), the 50% effective dose (ED50) was 29.1 mg/kg.

As to `CNC(=O)OC[C@H](OC(=O)NC)c1ccccc1Cl` [Entry 14], in the experiment on mice (CF-1 strain) [1] (setting [3]), the 50% effective dose (ED50) is above 20 mg/kg.

For “(R)-(2-(4-Chlorophenyl)-2-carbamoyloxyethyl)oxocarboxamide [Entry 9]”, the 50% effective dose (ED50) in the experiment with mice (CF-1 strain) [1] (setting [4]) was found to be 26.2 mg/kg.

As to “(R)-(2-(2-Chlorophenyl)-2-hydroxyethyl)oxocarboxamide [Entry 3]”, the 50% effective dose (ED50) with mice (CF-1 strain) [1] (setting [4]) is 50.0 mg/kg.

On to “(S)-(2-(2-chlorophenyl)-2-hydroxyethyl)oxocarboxamide [Entry 2]”, for which the 50% effective dose (ED50) in the experiment on mice (CF-1 strain) [1] (setting [4]) stood at 13.0 mg/kg.

“(R)-(2-(2,6-Dichlorophenyl)-carbamoyloxyethyl)oxocarboxamide [Entry 12]”: the 50% effective dose (ED50) in the experiment with mice (CF-1 strain) [1] (setting [4]) worked out at 10.7 mg/kg.

Take `O=C(Nc1ccccc1)OC[C@H](OC(=O)Nc1ccccc1)c1ccccc1Cl` [Entry 16, (R)-N-Phenyl(2-(2-chlorophenyl)-2-N-phenylcarbamoyloxyethyl)-oxocarboxamide]: the “ED50” value in the experiment on mice (CF-1 strain) [1] (setting [3]) was above 20 mg/kg.

On to “(R)-(2-(2-Chlorophenyl)-2-carbamoyloxyethyl)oxocarboxamide [Entry 6]”, for which, in the experiment with mice (CF-1 strain) [1] (setting [4]), the 50% effective dose (ED50) amounted to 16.0 mg/kg.

Consider `NC(=O)OC[C@H](OC(N)=O)c1ccccc1Cl` [Entry 13, (R)-(2-(2-Chlorophenyl)-2-N-carbamoyloxyethyl)oxocarboxamide], for which the “ED50” value with mice (CF-1 strain) [1] (setting [3]) is 8.9 mg/kg.

On to `NC(=O)OCC(O)c1ccccc1Cl` (stereo not drawn) [Entry 1, (DL)-(2-(2-chlorophenyl)-2-hydroxyethyl)oxocarboxamide], for which the “ED50” value in the experiment with mice (CF-1 strain) [1] (setting [4]) was 33.7 mg/kg.
